Source: patent US20250263434A1, “OLIGOPEPTIDE HAVING BLOOD PRESSURE REDUCING EFFECT, AND PREPARATION METHOD THEREFOR AND APPLICATION THEREOF” (South China Agricultural University, priority 2020, published 2025)

Tested on: ACE
Assay: Determination of ACE inhibitory activity (HHL substrate, hippuric acid measured by HPLC)
Type: biochemical
Conditions: for IC50: ACE inhibition, IC50 found from the inhibition rate vs concentration curve
Method: (2) Determination Method of ACE Inhibitory Activity
10 μL of ACE solution (0.25 U/mL, ACE enzyme was dissolved into pH 7 potassium phosphate buffer) was respectively added into a sample tube (B) and a blank tube (A), 10 μL of ACEI was added into the sample tube, 10 μL of buffer was added into the blank tube, samples were incubated for 5 min at 37° C., then 30 μL of HHL solution ([…], HHL was dissolved into pH 8.3 0.1 mol·L^−1 borate buffer, containing 0.3 mol·L^−1 NaCl) was added, the above materials reacted for 1 h at 37° C., and then 80 μL of 1.0 mol/L HCl was added to terminate the reaction, so as to obtain a reaction solution, seen in Table 2.
Mobile phase and chromatographic conditions: acetonitrile: ultrapure water=25:75 (including 0.1% (V/V) TFA), flow rate: 1 mL/min; detection wavelength: 228 nm; column temperature: 30° C.; injection volume: 20 μL.
Principle: HHL was rapidly decomposed under the catalysis of ACE to produce hippuric acid (Hip) and dipeptide (His-Leu, HL). Hippuric acid has the maximum absorption at 228 nm. When ACEI samples were added, the activity of the ACE enzyme was inhibited and the production amount of hippuric acid was reduced. Therefore, the inhibition rate of ACEI on ACE activity can be evaluated by measuring the production amount of hippuric acid by HPLC.
In the formula, R: an inhibition rate (%) of ACEI sample on ACE; • A: a peak area of hippuric acid in control group • B: a peak area of hippuric acid in ACEI addition group • A0: a peak area of hippuric acid in blank group
Where, IC50 is defined as a concentration of an inhibitor required when a half of ACE enzyme activity is inhibited under certain conditions. There was no a linear relationship between the inhibition rate and the concentration of the formulation, and therefore a curve of a relationship between the inhibition rate and the concentration of the formulation was firstly plotted, and then IC50 was found out from the curve. […]

IC50 [µg/mL]	IC50 (listed as oligopeptide) [µg/mL]	Substance	inhibition rate on ACE (concentration of the sample 1 mg/mL) [%]
56.67 ± 12.02		LIIPEH [Artificially synthesized monomer H6, Leu-Ile-Ile-Pro-Glu-His, Synthesized LIIPEH by Shanghai jiepeptide Biotechnology Co., Ltd]	
	280.00 ± 5.77	LIIPEH [RP-HCLP separated monomer H6, Leu-Ile-Ile-Pro-Glu-His, Oligopeptide LIIPEH separated and purified from rice wine lees]	91.72
